Columns and labels:
[1] = biological target: 5-hydroxytryptamine receptor 2A (Homo sapiens, UniProt P28223); assay: Displacement of [3H]ketanserin from 5HT2A receptor expressed in NIH3T3 cells; format: cell-based
[2] = biological target: 5-hydroxytryptamine receptor 2A (Homo sapiens, UniProt P28223, F340L); assay: Displacement of [3H]ketanserein from 5HT2A receptor F340L mutant expressed in NIH3T3 cells; format: cell-based
[3] = biological target: Sodium-dependent serotonin transporter (Homo sapiens, UniProt P31645); assay: Displacement of [3H]paroxitine from SERT
D(2) dopamine receptor = D(2) dopamine receptor (Homo sapiens, UniProt P14416); assay: Displacement of [3H]spiperone from dopamine D2 receptor
[4] = biological target: Sodium-dependent noradrenaline transporter (Homo sapiens, UniProt P23975); assay: Displacement of [3H]nisoxitine from NET
[5] = biological target: T1, 5-hydroxytryptamine receptor 2C (Homo sapiens, UniProt P28335); assay: Displacement of [3H]mesulergine from 5HT2C receptor
T1 sequence (P28335 whole entry): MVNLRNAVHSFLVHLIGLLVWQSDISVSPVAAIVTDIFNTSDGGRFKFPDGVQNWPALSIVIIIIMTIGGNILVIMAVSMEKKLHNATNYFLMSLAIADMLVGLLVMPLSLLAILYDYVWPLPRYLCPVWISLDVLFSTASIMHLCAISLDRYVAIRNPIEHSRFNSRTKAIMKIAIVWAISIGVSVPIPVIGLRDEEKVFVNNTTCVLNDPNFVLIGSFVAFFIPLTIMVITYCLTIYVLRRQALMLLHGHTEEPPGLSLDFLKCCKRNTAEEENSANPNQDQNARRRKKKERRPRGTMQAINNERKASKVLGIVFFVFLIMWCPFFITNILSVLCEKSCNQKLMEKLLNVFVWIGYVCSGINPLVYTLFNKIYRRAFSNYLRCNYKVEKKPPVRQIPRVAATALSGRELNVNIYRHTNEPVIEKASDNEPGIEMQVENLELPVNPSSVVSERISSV

Sequence of Sodium-dependent noradrenaline transporter (P23975 whole entry): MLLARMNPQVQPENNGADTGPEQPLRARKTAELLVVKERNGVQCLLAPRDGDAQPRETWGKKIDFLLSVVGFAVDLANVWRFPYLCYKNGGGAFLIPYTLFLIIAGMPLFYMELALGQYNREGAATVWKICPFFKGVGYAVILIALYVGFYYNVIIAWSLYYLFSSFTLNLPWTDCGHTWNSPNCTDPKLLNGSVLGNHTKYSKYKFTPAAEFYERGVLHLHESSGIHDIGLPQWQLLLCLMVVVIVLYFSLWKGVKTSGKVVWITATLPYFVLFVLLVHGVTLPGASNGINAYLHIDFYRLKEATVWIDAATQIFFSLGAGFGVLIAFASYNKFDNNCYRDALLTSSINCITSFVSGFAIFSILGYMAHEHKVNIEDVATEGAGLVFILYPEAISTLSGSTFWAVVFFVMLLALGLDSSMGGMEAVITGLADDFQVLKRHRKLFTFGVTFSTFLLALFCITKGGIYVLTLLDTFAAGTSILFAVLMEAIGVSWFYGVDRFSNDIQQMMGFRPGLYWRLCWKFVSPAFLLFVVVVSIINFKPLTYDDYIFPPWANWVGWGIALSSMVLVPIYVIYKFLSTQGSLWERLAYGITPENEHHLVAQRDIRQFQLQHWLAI
Sequence of Sodium-dependent serotonin transporter (P31645 whole entry): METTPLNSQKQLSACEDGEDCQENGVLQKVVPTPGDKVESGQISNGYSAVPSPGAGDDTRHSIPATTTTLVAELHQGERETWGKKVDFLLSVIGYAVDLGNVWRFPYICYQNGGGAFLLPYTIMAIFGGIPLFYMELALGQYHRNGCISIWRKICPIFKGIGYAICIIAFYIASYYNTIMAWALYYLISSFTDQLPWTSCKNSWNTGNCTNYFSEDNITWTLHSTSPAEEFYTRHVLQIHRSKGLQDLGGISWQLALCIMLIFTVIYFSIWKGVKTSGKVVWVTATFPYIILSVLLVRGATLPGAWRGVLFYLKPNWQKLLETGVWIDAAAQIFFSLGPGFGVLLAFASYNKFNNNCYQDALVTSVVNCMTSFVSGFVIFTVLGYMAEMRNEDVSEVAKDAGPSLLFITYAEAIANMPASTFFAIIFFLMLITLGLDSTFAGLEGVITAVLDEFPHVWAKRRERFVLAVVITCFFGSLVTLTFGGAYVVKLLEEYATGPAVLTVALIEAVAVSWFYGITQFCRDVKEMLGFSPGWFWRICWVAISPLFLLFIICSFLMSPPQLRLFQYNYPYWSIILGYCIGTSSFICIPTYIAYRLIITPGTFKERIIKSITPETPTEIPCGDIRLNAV
Sequence of D(2) dopamine receptor (P14416 whole entry): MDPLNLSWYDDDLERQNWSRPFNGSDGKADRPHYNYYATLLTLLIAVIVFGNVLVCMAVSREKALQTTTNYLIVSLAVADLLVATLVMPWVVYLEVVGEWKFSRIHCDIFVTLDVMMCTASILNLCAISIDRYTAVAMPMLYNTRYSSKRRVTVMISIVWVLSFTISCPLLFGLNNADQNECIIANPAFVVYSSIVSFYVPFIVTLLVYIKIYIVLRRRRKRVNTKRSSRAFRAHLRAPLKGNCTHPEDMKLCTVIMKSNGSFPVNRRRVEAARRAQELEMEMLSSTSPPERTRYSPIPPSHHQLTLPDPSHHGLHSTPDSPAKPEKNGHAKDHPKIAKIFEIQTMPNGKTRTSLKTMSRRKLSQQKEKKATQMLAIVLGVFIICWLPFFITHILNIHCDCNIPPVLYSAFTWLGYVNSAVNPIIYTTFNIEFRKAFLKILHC
Sequence of 5-hydroxytryptamine receptor 2A (Homo sapiens, UniProt P28223) (P28223 whole entry): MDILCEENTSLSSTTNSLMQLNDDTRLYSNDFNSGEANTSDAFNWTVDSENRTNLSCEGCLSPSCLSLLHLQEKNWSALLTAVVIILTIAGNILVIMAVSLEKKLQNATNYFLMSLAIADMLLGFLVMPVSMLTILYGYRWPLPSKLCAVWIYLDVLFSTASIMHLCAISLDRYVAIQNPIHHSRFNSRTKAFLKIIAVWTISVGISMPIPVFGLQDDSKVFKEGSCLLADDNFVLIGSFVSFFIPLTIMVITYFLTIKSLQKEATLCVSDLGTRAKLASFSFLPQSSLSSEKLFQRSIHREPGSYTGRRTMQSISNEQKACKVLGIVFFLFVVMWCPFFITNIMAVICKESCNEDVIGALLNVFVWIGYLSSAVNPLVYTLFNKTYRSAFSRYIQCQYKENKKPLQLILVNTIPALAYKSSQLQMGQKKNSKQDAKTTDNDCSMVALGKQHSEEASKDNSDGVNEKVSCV
Sequence of 5-hydroxytryptamine receptor 2A (Homo sapiens, UniProt P28223, F340L) (P28223 whole entry F340L): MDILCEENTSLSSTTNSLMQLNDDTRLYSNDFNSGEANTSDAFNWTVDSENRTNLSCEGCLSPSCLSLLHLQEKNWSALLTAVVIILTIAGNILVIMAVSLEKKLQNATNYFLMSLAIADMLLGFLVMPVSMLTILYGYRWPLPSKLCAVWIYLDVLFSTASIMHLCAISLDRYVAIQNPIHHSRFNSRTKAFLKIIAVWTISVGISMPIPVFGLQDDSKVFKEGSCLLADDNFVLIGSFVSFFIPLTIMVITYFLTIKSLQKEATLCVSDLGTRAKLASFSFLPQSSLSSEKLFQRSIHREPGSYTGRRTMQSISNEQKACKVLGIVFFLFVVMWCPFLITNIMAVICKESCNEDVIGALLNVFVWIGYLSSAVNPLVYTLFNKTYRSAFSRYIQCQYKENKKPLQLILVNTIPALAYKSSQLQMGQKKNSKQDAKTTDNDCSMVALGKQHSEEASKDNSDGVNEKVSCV

NCCc1ccc(CCCc2ccccc2)cc1
Ki [1]: 0.06 µM

CCCCCOc1ccc2c(c1)Cc1ccccc1C2CN (stereo not drawn)
Ki [1]: 0.023 µM

CCCCCCc1cc(OC)c(CC(C)N)cc1OC (stereo not drawn)
Ki [1]: 0.0025 µM

NCC(c1ccccc1)c1ccc(Br)cc1 (stereo not drawn)
Ki [1]: 0.26 µM
Ki [2]: 0.0035 µM

NCC1c2ccccc2Cc2ccccc21
Ki [3]: > 10 µM
Ki (D(2) dopamine receptor): > 10 µM
Ki [4]: > 10 µM
Ki [5]: 0.043 µM

NCCc1ccc(Br)cc1
Ki [1]: 1.77 µM

CCCCCCc1ccc(CCN)cc1
Ki [1]: 0.078 µM

NCC1c2ccccc2Cc2cc(O)ccc21 (stereo not drawn)
Ki [1]: 0.107 µM

CCCCCCc1ccc(C(CN)c2ccccc2)cc1 (stereo not drawn)
Ki [1]: 0.2 µM

NCC1c2ccccc2Cc2cc(CCCc3ccccc3)ccc21 (stereo not drawn)
Ki [1]: 0.0032 µM

COc1cc(CC(C)N)c(OC)cc1CCCc1ccccc1 (stereo not drawn)
Ki [1]: 0.01 µM

COc1cc(CC(C)N)c(OC)cc1O (stereo not drawn)
Ki [1]: > 50 µM

COc1cc(OC)c(OC)cc1CC(C)N (stereo not drawn)
Ki [1]: 1.2 µM

NCC1c2ccccc2Cc2cc(Br)ccc21 (stereo not drawn)
Ki [3]: 1.2 µM
Ki (D(2) dopamine receptor): > 10 µM
Ki [4]: 4.49 µM
Ki [1]: 0.0013 µM
Ki [2]: 0.0018 µM
Ki [5]: 0.0033 µM

CCCCCCc1ccc2c(c1)Cc1ccccc1C2CN (stereo not drawn)
Ki [3]: 0.49 µM
Ki (D(2) dopamine receptor): 6.28 µM
Ki [4]: 0.845 µM
Ki [1]: 0.007 µM
Ki [5]: 0.062 µM

Reference: ChEMBL document CHEMBL1142528 (J Med Chem, 2008)
